According to BindingDB's records for doi:10.1124/jpet.301.1.37 (National Institutes of Health, 2002):
Where “and” joins values, the source holds several entries; their conditions need not be identical. Equal values may be shown once.

How the values were obtained:
VIP peptides [1] = target: T1, VIP peptides (Rattus norvegicus, UniProt P01283)
T1 sequence (P01283 whole entry): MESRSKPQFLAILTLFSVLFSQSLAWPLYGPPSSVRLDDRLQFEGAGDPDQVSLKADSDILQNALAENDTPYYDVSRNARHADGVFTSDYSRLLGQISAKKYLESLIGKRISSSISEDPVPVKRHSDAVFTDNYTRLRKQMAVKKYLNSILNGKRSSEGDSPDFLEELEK

VIP peptides [2] = target: T2, VIP peptides (Homo sapiens, UniProt P01282)
T2 sequence (P01282 whole entry): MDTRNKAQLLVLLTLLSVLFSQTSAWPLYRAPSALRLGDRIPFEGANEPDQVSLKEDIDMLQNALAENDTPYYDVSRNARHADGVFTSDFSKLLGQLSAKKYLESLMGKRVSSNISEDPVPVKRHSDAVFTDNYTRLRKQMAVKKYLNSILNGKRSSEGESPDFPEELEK

VIP peptides [3] = target: T3, VIP peptides (Cavia porcellus, UniProt P04566)
T3 sequence (P04566 whole entry): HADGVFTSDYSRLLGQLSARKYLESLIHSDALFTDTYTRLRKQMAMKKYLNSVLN

CC[C@H](C)[C@H](NC(=O)[C@H](CO)NC(=O)[C@H](CC(N)=O)NC(=O)[C@H](CC(C)C)NC(=O)[C@H](Cc1ccc(O)cc1)NC(=O)[C@H](CCCCN)NC(=O)[C@H](CCCCN)NC(=O)[C@@H](NC(=O)[C@H](C)NC(=O)[C@H](CCSC)NC(=O)[C@H](CCC(N)=O)NC(=O)[C@H](CCCCN)NC(=O)[C@H](CCCN=C(N)N)NC(=O)[C@H](CC(C)C)NC(=O)[C@H](CCCN=C(N)N)NC(=O)[C@@H](NC(=O)[C@H](Cc1ccc(O)cc1)NC(=O)[C@H](CC(N)=O)NC(=O)[C@H](CC(=O)O)NC(=O)[C@@H](NC(=O)[C@@H](Cc1ccccc1)NC(=O)[C@@H](NC(=O)[C@H](C)NC(=O)[C@H](CC(=O)O)NC(=O)[C@H](CO)NC(=O)[C@@H](N)Cc1cnc[nH]1)C(C)C)[C@@H](C)O)[C@@H](C)O)C(C)C)C(=O)N[C@@H](CC(C)C)C(=O)N[C@@H](CC(N)=O)C(N)=O [VIP [D-Phe6]]
Ki (VIP peptides [1]): 269 nM and 692 nM and 912 nM
Ki (VIP peptides [2]): 288 nM and 198 nM and 115 nM
Ki (VIP peptides [3]): 400 nM

H-HSDAVFTDNYTRLRKQMAVKAYLNSILN-NH2 [VIP Ala21]
Ki (VIP peptides [1]): 0.38 nM and 2.1 nM and 0.51 nM
Ki (VIP peptides [2]): 0.87 nM and 5 nM and 5.1 nM
Ki (VIP peptides [3]): 3.2 nM

CC[C@H](C)[C@H](NC(=O)[C@H](CO)NC(=O)[C@H](CC(N)=O)NC(=O)[C@H](CC(C)C)NC(=O)[C@H](Cc1ccc(O)cc1)NC(=O)[C@H](CCCCN)NC(=O)[C@H](CCCCN)NC(=O)[C@@H](NC(=O)[C@H](C)NC(=O)[C@H](CCSC)NC(=O)[C@H](CCC(N)=O)NC(=O)[C@H](CCCCN)NC(=O)[C@H](CCCN=C(N)N)NC(=O)[C@H](CC(C)C)NC(=O)[C@H](CCCN=C(N)N)NC(=O)[C@@H](NC(=O)[C@H](Cc1ccc(O)cc1)NC(=O)[C@H](CC(N)=O)NC(=O)[C@H](CC(=O)O)NC(=O)[C@@H](NC(=O)[C@H](Cc1ccccc1)NC(=O)[C@@H](NC(=O)[C@H](C)NC(=O)[C@H](CC(=O)O)NC(=O)[C@H](CO)NC(=O)[C@@H](N)Cc1cnc[nH]1)C(C)C)[C@@H](C)O)[C@@H](C)O)C(C)C)C(=O)N[C@@H](CC(C)C)C(=O)N[C@H](CC(N)=O)C(N)=O [VIP [D-Asn28]]
Ki (VIP peptides [1]): 1.5 nM and 6.3 nM and 11.8 nM
Ki (VIP peptides [3]): 14.8 nM

CC[C@H](C)[C@H](NC(=O)[C@H](CO)NC(=O)[C@H](CC(N)=O)NC(=O)[C@H](CC(C)C)NC(=O)[C@H](Cc1ccc(O)cc1)NC(=O)[C@H](CCCCN)NC(=O)[C@H](CCCCN)NC(=O)[C@@H](NC(=O)[C@H](C)NC(=O)[C@H](CCSC)NC(=O)[C@H](CCC(N)=O)NC(=O)[C@H](CCCCN)NC(=O)[C@@H](CCCN=C(N)N)NC(=O)[C@H](CC(C)C)NC(=O)[C@H](CCCN=C(N)N)NC(=O)[C@@H](NC(=O)[C@H](Cc1ccc(O)cc1)NC(=O)[C@H](CC(N)=O)NC(=O)[C@H](CC(=O)O)NC(=O)[C@@H](NC(=O)[C@H](Cc1ccccc1)NC(=O)[C@@H](NC(=O)[C@H](C)NC(=O)[C@H](CC(=O)O)NC(=O)[C@H](CO)NC(=O)[C@@H](N)Cc1cnc[nH]1)C(C)C)[C@@H](C)O)[C@@H](C)O)C(C)C)C(=O)N[C@@H](CC(C)C)C(=O)N[C@@H](CC(N)=O)C(N)=O [VIP [D-Arg14]]
Ki (VIP peptides [1]): 10.5 nM and 22.4 nM and 27.5 nM
Ki (VIP peptides [2]): 10.7 nM and 31.6 nM and 24.6 nM
Ki (VIP peptides [3]): 36.4 nM

H-HSDAVFTDNYTRARKQMAVKKYLNSILN-NH2 [VIP Ala13]
Ki (VIP peptides [1]): 1.9 nM and 9.3 nM and 10 nM
Ki (VIP peptides [2]): 6.6 nM and 7.2 nM and 3.4 nM
Ki (VIP peptides [3]): 9.5 nM

CC[C@H](C)[C@H](NC(=O)[C@H](CO)NC(=O)[C@H](CC(N)=O)NC(=O)[C@H](CC(C)C)NC(=O)[C@H](Cc1ccc(O)cc1)NC(=O)[C@H](CCCCN)NC(=O)[C@H](CCCCN)NC(=O)[C@@H](NC(=O)[C@H](C)NC(=O)[C@H](CCSC)NC(=O)[C@H](CCC(N)=O)NC(=O)[C@H](CCCCN)NC(=O)[C@H](CCCN=C(N)N)NC(=O)[C@H](CC(C)C)NC(=O)[C@H](CCCN=C(N)N)NC(=O)[C@@H](NC(=O)[C@H](Cc1ccc(O)cc1)NC(=O)[C@H](CC(N)=O)NC(=O)[C@H](CC(=O)O)NC(=O)[C@@H](NC(=O)[C@H](Cc1ccccc1)NC(=O)[C@@H](NC(=O)[C@H](C)NC(=O)[C@H](CC(=O)O)NC(=O)[C@@H](CO)NC(=O)[C@@H](N)Cc1cnc[nH]1)C(C)C)[C@@H](C)O)[C@@H](C)O)C(C)C)C(=O)N[C@@H](CC(C)C)C(=O)N[C@@H](CC(N)=O)C(N)=O [VIP [D-Ser2]]
Ki (VIP peptides [1]): 4.2 nM and 15.1 nM and 38.9 nM
Ki (VIP peptides [2]): 1.9 nM and 18.2 nM and 15.9 nM
Ki (VIP peptides [3]): 8.1 nM

CC[C@H](C)[C@H](NC(=O)[C@H](CO)NC(=O)[C@H](CC(N)=O)NC(=O)[C@H](CC(C)C)NC(=O)[C@@H](Cc1ccc(O)cc1)NC(=O)[C@H](CCCCN)NC(=O)[C@H](CCCCN)NC(=O)[C@@H](NC(=O)[C@H](C)NC(=O)[C@H](CCSC)NC(=O)[C@H](CCC(N)=O)NC(=O)[C@H](CCCCN)NC(=O)[C@H](CCCN=C(N)N)NC(=O)[C@H](CC(C)C)NC(=O)[C@H](CCCN=C(N)N)NC(=O)[C@@H](NC(=O)[C@H](Cc1ccc(O)cc1)NC(=O)[C@H](CC(N)=O)NC(=O)[C@H](CC(=O)O)NC(=O)[C@@H](NC(=O)[C@H](Cc1ccccc1)NC(=O)[C@@H](NC(=O)[C@H](C)NC(=O)[C@H](CC(=O)O)NC(=O)[C@H](CO)NC(=O)[C@@H](N)Cc1cnc[nH]1)C(C)C)[C@@H](C)O)[C@@H](C)O)C(C)C)C(=O)N[C@@H](CC(C)C)C(=O)N[C@@H](CC(N)=O)C(N)=O [VIP [D-Tyr22]]
Ki (VIP peptides [1]): 11.8 nM and 28.2 nM and 38.9 nM
Ki (VIP peptides [2]): 128 nM and 95.5 nM and 112 nM
Ki (VIP peptides [3]): 29.5 nM

CC[C@H](C)[C@H](NC(=O)[C@H](CO)NC(=O)[C@H](CC(N)=O)NC(=O)[C@H](CC(C)C)NC(=O)[C@H](Cc1ccc(O)cc1)NC(=O)[C@H](CCCCN)NC(=O)[C@H](CCCCN)NC(=O)[C@@H](NC(=O)[C@H](C)NC(=O)[C@H](CCSC)NC(=O)[C@H](CCC(N)=O)NC(=O)[C@H](CCCCN)NC(=O)[C@H](CCCN=C(N)N)NC(=O)[C@H](CC(C)C)NC(=O)[C@H](CCCN=C(N)N)NC(=O)[C@@H](NC(=O)[C@H](Cc1ccc(O)cc1)NC(=O)[C@H](CC(N)=O)NC(=O)[C@H](CC(=O)O)NC(=O)[C@@H](NC(=O)[C@H](Cc1ccccc1)NC(=O)[C@@H](NC(=O)[C@@H](C)NC(=O)[C@H](CC(=O)O)NC(=O)[C@H](CO)NC(=O)[C@@H](N)Cc1cnc[nH]1)C(C)C)[C@@H](C)O)[C@@H](C)O)C(C)C)C(=O)N[C@@H](CC(C)C)C(=O)N[C@@H](CC(N)=O)C(N)=O [VIP [D-Ala4]]
Ki (VIP peptides [1]): 1.1 nM and 7.2 nM and 10.5 nM
Ki (VIP peptides [3]): 16.2 nM

H-HSDAVFTDNYTRLRKAMAVKKYLNSILN-NH2 [VIP Ala16]
Ki (VIP peptides [1]): 0.93 nM and 2.1 nM and 1.1 nM
Ki (VIP peptides [3]): 5.1 nM

H-HSDAVFTDNYARLRKQMAVKKYLNSILN-NH2 [VIP Ala11]
Ki (VIP peptides [1]): 0.34 nM and 1.9 nM and 0.42 nM
Ki (VIP peptides [3]): 2.4 nM

CC[C@H](C)[C@H](NC(=O)[C@H](CO)NC(=O)[C@H](CC(N)=O)NC(=O)[C@H](CC(C)C)NC(=O)[C@H](Cc1ccc(O)cc1)NC(=O)[C@H](CCCCN)NC(=O)[C@H](CCCCN)NC(=O)[C@@H](NC(=O)[C@H](C)NC(=O)[C@H](CCSC)NC(=O)[C@H](CCC(N)=O)NC(=O)[C@H](CCCCN)NC(=O)[C@H](CCCN=C(N)N)NC(=O)[C@H](CC(C)C)NC(=O)[C@H](CCCN=C(N)N)NC(=O)[C@@H](NC(=O)[C@H](Cc1ccc(O)cc1)NC(=O)[C@H](CC(N)=O)NC(=O)[C@H](CC(=O)O)NC(=O)[C@@H](NC(=O)[C@H](Cc1ccccc1)NC(=O)[C@@H](NC(=O)[C@H](C)NC(=O)[C@@H](CC(=O)O)NC(=O)[C@H](CO)NC(=O)[C@@H](N)Cc1cnc[nH]1)C(C)C)[C@@H](C)O)[C@@H](C)O)C(C)C)C(=O)N[C@@H](CC(C)C)C(=O)N[C@@H](CC(N)=O)C(N)=O [VIP [D-Asp3]]
Ki (VIP peptides [1]): 0.93 nM and 5.4 nM and 6.5 nM
Ki (VIP peptides [3]): 9.1 nM

H-HSDAVFTDNYTRLRKQMAVAKYLNSILN-NH2 [VIP Ala20]
Ki (VIP peptides [1]): 1.7 nM and 3.5 nM and 3.3 nM
Ki (VIP peptides [3]): 5.5 nM
